Test results as given in ChEMBL document CHEMBL4507302, “Data for DCP probe TP-020” (2021).

Legend:
[1] = target: Mitogen-activated protein kinase kinase kinase 19 (Homo sapiens) (UniProt Q56UN5); conditions: Compound concentration 1000.0 nM
[2] = target: Tyrosine-protein kinase Lck (Homo sapiens) (UniProt P06239); conditions: Compound concentration 1000.0 nM
[3] = test system: Receptor-type tyrosine-protein kinase FLT3 (Homo sapiens), P36888 [D835Y]; conditions: Compound concentration 1000.0 nM
[4] = target: cGMP-dependent protein kinase 1 (Homo sapiens) (UniProt Q13976); conditions: Compound concentration 1000.0 nM
[5] = target: Histamine H3 receptor (Homo sapiens) (UniProt Q9Y5N1); conditions: Compound concentration 10.0 uM
Chain of Histamine H3 receptor (Homo sapiens) (Q9Y5N1 whole entry): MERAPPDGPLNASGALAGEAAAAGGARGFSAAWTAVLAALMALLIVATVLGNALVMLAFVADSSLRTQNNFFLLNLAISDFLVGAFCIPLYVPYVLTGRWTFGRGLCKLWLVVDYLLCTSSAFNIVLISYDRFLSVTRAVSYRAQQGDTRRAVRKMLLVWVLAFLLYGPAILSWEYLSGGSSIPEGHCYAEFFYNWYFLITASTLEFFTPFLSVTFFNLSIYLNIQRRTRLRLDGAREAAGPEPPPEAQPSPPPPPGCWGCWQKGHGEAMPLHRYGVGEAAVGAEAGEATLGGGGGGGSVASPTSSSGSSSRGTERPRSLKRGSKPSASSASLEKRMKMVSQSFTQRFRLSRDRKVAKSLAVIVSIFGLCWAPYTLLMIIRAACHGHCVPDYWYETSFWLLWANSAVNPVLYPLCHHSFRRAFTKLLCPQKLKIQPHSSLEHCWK

[6] = target: Tyrosine-protein kinase ABL1 (Homo sapiens) (UniProt P00519); conditions: Compound concentration 1000.0 nM
[7] = test system: ALK tyrosine kinase receptor (Homo sapiens), Q9UM73 [L1196M]; conditions: Compound concentration 1000.0 nM
[8] = test system: Tyrosine-protein kinase ABL1 (Homo sapiens), P00519 [T315I]; conditions: Compound concentration 1000.0 nM
[9] = target: Cyclin-dependent kinase 16 (Homo sapiens) (UniProt Q00536); conditions: Compound concentration 1000.0 nM
[10] = target: Vascular endothelial growth factor receptor 1 (Homo sapiens) (UniProt P17948); conditions: Compound concentration 1000.0 nM
[11] = target: Serine/threonine-protein kinase DCLK1 (Homo sapiens) (UniProt O15075); conditions: Compound concentration 1000.0 nM
[12] = target: Fibroblast growth factor receptor 2 (Homo sapiens) (UniProt P21802); conditions: Compound concentration 1000.0 nM
[13] = target: Cyclin-dependent kinase 8 (Homo sapiens) (UniProt P49336); conditions: Compound concentration 1000.0 nM
[14] = test system: Mast/stem cell growth factor receptor Kit (Homo sapiens), P10721 [V559D]; conditions: Compound concentration 1000.0 nM
[15] = target: MAP kinase-interacting serine/threonine-protein kinase 2 (Homo sapiens) (UniProt Q9HBH9); conditions: Compound concentration 1000.0 nM
Chain of MAP kinase-interacting serine/threonine-protein kinase 2 (Homo sapiens) (Q9HBH9 whole entry, looked up): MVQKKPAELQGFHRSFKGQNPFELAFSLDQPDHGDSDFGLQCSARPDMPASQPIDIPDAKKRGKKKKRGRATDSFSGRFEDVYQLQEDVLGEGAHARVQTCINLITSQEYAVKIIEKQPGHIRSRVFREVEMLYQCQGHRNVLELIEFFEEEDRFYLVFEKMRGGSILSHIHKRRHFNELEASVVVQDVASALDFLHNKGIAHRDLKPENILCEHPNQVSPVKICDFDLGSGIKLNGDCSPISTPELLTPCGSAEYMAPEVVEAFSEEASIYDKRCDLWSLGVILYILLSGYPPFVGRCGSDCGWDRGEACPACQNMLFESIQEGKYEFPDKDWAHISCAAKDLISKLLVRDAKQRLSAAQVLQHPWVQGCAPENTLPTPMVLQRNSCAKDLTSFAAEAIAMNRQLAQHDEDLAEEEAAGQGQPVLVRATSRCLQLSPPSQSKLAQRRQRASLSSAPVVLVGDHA

[16] = target: Serine/threonine-protein kinase RIO3 (Homo sapiens) (UniProt O14730); conditions: Compound concentration 1000.0 nM
[17] = target: Tyrosine-protein kinase CSK (Homo sapiens) (UniProt P41240); conditions: Compound concentration 1000.0 nM
[18] = target: Sodium-dependent noradrenaline transporter (Homo sapiens) (UniProt P23975); conditions: Compound concentration 10.0 uM
[19] = test system: Tyrosine-protein kinase ABL1 (Homo sapiens), P00519 [E255K]; conditions: Compound concentration 1000.0 nM
[20] = target: Casein kinase I isoform delta (Homo sapiens) (UniProt P48730); conditions: Compound concentration 1000.0 nM
[21] = target: NUAK family SNF1-like kinase 2 (Homo sapiens) (UniProt Q9H093); conditions: Compound concentration 1000.0 nM
[22] = target: Transient receptor potential cation channel subfamily M member 6 (Homo sapiens) (UniProt Q9BX84); conditions: Compound concentration 1000.0 nM
[23] = target: LIM domain kinase 2 (Homo sapiens) (UniProt P53671); conditions: Compound concentration 1000.0 nM
[24] = target: Calcium/calmodulin-dependent protein kinase type II subunit beta (Homo sapiens) (UniProt Q13554); conditions: Compound concentration 1000.0 nM
[25] = target: Dual specificity mitogen-activated protein kinase kinase 7 (Homo sapiens) (UniProt O14733); conditions: Compound concentration 1000.0 nM
Chain of Dual specificity mitogen-activated protein kinase kinase 7 (Homo sapiens) (O14733 whole entry): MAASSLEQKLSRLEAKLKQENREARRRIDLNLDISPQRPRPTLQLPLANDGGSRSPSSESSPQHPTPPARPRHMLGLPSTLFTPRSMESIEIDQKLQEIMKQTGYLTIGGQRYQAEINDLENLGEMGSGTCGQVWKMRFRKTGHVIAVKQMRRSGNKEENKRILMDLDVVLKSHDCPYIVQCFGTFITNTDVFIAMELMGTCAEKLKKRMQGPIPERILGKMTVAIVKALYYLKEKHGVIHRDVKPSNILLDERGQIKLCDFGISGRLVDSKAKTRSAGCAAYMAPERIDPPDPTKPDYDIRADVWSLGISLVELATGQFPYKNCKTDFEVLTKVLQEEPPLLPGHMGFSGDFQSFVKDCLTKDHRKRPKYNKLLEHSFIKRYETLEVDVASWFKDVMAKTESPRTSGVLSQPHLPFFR

[26] = target: Ephrin type-A receptor 5 (Homo sapiens) (UniProt P54756); conditions: Compound concentration 1000.0 nM
[27] = target: Cyclin-dependent kinase-like 5 (Homo sapiens) (UniProt O76039); conditions: Compound concentration 1000.0 nM
[28] = target: Serine/threonine-protein kinase WNK4 (Homo sapiens) (UniProt Q96J92); conditions: Compound concentration 1000.0 nM
Chain of Serine/threonine-protein kinase WNK4 (Homo sapiens) (Q96J92 whole entry): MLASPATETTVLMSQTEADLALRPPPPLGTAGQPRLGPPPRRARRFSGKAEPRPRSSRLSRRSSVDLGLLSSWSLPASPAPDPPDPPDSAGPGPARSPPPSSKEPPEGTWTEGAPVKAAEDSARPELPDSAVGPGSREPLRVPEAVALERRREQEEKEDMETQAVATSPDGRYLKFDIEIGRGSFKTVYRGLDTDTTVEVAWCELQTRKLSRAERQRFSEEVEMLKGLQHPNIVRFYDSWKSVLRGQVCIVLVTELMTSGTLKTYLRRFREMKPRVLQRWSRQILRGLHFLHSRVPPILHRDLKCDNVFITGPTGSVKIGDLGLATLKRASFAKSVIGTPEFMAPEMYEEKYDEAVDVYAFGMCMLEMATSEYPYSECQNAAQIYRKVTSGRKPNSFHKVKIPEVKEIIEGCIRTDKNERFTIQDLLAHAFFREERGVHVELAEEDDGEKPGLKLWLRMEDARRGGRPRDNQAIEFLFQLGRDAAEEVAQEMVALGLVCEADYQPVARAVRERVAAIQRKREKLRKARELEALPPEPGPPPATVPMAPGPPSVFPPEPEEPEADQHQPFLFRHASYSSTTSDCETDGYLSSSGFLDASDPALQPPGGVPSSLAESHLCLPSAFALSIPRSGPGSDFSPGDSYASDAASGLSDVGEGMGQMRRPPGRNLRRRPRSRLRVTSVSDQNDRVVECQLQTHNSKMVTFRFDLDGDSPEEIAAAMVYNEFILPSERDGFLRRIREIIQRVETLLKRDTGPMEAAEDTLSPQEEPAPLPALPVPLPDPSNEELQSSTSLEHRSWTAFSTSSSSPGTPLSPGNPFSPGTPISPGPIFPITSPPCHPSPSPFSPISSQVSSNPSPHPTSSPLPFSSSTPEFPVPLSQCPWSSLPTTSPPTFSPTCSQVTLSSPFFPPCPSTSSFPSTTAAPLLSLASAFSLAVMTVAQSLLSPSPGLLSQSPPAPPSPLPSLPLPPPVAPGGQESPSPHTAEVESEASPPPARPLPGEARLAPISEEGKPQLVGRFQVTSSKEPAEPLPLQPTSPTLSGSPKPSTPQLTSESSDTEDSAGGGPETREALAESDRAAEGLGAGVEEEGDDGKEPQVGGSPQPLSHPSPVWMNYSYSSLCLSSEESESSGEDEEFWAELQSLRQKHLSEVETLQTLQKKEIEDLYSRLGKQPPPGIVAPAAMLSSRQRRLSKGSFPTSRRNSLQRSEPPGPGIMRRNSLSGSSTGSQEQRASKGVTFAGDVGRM

[29] = target: Serine/threonine-protein kinase Nek9 (Homo sapiens) (UniProt Q8TD19); conditions: Compound concentration 1000.0 nM
[30] = target: Tyrosine-protein kinase ITK/TSK (Homo sapiens) (UniProt Q08881); conditions: Compound concentration 1000.0 nM
Chain of Tyrosine-protein kinase ITK/TSK (Homo sapiens) (Q08881 whole entry): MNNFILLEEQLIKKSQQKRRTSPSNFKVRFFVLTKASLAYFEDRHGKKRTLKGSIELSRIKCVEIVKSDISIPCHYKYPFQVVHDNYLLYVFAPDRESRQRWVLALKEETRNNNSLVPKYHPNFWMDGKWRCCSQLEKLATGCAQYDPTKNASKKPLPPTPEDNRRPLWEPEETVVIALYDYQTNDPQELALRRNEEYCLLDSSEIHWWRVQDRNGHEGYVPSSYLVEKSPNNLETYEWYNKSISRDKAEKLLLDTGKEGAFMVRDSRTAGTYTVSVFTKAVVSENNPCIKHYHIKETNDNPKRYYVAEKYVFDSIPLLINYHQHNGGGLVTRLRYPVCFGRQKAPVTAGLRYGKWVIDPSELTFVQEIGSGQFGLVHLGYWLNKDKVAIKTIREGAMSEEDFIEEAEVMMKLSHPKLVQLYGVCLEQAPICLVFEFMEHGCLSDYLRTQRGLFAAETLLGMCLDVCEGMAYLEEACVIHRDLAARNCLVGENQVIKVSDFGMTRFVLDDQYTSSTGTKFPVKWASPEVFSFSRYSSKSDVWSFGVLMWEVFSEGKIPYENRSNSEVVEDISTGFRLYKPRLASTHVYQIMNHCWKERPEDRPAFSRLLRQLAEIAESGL

[31] = target: Serine/threonine-protein kinase 38-like (Homo sapiens) (UniProt Q9Y2H1); conditions: Compound concentration 1000.0 nM
[32] = target: Receptor-type tyrosine-protein kinase FLT3 (Homo sapiens) (UniProt P36888); conditions: Compound concentration 1000.0 nM
[33] = target: Serine/threonine-protein kinase 26 (Homo sapiens) (UniProt Q9P289); conditions: Compound concentration 1000.0 nM
[34] = test system: Mast/stem cell growth factor receptor Kit (Homo sapiens), P10721 [D816V]; conditions: Compound concentration 1000.0 nM
Chain of Mast/stem cell growth factor receptor Kit (Homo sapiens), P10721 [D816V] (P10721 whole entry D816V): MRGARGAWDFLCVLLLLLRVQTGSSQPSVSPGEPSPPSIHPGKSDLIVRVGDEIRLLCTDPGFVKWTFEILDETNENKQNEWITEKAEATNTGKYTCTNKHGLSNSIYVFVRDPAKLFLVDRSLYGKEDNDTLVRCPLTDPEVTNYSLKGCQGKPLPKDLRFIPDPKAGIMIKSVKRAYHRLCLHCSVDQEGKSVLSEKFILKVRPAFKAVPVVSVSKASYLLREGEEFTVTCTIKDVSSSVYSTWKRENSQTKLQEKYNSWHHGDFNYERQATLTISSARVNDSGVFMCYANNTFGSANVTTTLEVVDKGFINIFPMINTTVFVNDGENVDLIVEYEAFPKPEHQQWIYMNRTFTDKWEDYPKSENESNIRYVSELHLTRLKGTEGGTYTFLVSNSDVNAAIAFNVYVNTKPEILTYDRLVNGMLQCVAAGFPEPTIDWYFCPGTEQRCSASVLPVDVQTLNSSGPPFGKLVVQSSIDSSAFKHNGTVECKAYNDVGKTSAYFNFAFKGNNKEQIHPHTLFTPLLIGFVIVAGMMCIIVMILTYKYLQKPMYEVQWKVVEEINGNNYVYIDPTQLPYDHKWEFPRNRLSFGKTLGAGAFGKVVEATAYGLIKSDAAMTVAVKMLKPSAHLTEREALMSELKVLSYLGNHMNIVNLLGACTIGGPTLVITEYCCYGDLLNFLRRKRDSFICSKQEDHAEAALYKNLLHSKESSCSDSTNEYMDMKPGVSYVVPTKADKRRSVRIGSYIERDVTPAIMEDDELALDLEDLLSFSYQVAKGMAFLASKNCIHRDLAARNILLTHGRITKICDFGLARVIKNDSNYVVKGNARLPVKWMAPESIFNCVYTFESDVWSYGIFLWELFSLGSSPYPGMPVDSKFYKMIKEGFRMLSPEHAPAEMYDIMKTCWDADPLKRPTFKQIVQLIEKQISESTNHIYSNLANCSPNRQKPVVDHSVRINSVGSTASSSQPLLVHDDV

[35] = target: Histamine H2 receptor (Homo sapiens) (UniProt P25021); conditions: Compound concentration 10.0 uM
[36] = target: Alpha-1B adrenergic receptor (Homo sapiens) (UniProt P35368); conditions: Compound concentration 10.0 uM
[37] = target: Insulin receptor-related protein (Homo sapiens) (UniProt P14616); conditions: Compound concentration 1000.0 nM
[38] = target: Serine/threonine-protein kinase 16 (Homo sapiens) (UniProt O75716); conditions: Compound concentration 1000.0 nM
Chain of Serine/threonine-protein kinase 16 (Homo sapiens) (O75716 whole entry): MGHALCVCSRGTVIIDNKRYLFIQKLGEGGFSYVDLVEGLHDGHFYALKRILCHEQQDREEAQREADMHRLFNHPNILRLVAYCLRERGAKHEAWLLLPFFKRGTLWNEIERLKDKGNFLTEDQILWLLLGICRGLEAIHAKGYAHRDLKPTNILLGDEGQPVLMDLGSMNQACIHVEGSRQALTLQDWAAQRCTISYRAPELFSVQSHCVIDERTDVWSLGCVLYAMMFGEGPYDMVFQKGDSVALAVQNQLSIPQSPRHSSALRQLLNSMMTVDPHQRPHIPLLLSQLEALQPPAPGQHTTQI

[39] = target: Ephrin type-A receptor 2 (Homo sapiens) (UniProt P29317); conditions: Compound concentration 1000.0 nM
[40] = test system: Receptor-type tyrosine-protein kinase FLT3 (Homo sapiens), P36888 [UNDEFINED MUTATION]; conditions: Compound concentration 1000.0 nM
[41] = target: Serine/threonine-protein kinase N2 (Homo sapiens) (UniProt Q16513); conditions: Compound concentration 1000.0 nM
[42] = target: GABA-A receptor; anion channel (Rattus norvegicus) (UniProt O09028+P15431+P18506+P18508+P19969+P20236+P23574+P23576+P28471+P28473+P30191+P62813+P63079+P63138+Q91ZM7+Q9ES14); conditions: Compound concentration 10.0 uM
[43] = target: D(1A) dopamine receptor (Homo sapiens) (UniProt P21728); conditions: Compound concentration 10.0 uM
[44] = test system: Receptor-type tyrosine-protein kinase FLT3 (Homo sapiens), P36888 [UNDEFINED MUTATION]; conditions: Compound concentration 1000.0 nM; remark: listed apart in the source

Chain of Tyrosine-protein kinase Lck (Homo sapiens) (P06239 2-509 limits assumed): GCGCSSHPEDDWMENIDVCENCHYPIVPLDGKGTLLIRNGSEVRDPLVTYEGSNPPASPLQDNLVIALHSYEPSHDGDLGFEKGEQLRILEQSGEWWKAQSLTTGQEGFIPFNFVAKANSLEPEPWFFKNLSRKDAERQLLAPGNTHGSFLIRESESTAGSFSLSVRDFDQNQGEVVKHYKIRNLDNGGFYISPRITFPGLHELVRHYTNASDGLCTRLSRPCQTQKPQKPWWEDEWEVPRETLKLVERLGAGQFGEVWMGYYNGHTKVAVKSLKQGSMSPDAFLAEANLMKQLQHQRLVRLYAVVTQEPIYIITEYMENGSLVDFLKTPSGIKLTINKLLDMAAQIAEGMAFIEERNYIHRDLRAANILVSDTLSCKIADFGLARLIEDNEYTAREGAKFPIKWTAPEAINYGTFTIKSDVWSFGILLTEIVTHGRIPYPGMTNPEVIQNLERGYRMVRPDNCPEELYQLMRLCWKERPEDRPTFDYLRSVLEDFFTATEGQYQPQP

For `Cn1nc(C(F)(F)F)cc1-c1cnc(N2CCc3cc(S(=O)(=O)Nc4c(F)cc(Cl)cc4F)cc(N4CCCC4=O)c32)nc1` [TP-020], the residual activity [1] was 82%, the residual activity [2] was 100% and the residual activity [3] was 100%. For the same compound, the residual activity [4] was 87%, the inhibition [5] was 0.43% and the residual activity [6] was 73%. For the same compound, the residual activity [7] was 78%, the residual activity [8] was 74% and the residual activity [9] was 77%. The residual activity [10] was 95%, the residual activity [11] was 93% and the residual activity [12] was 100%. For the same compound, the residual activity [13] was 96%, the residual activity [14] was 99% and the residual activity [15] was 94%. It also gave a residual activity [16] of 100%, a residual activity [17] of 93% and an inhibition [18] of 5.69%. For the same compound, the residual activity [19] was 89%, the residual activity [20] was 94% and the residual activity [21] was 89%. It also gave a residual activity [22] of 79%, a residual activity [23] of 100% and a residual activity [24] of 92%. For the same compound, the residual activity [25] was 98%, the residual activity [26] was 94% and the residual activity [27] was 91%. For the same compound, the residual activity [28] was 83%, the residual activity [29] was 100% and the residual activity [30] was 97%. It also gave a residual activity [31] of 88%, a residual activity [32] of 85% and a residual activity [33] of 73%. The residual activity [34] was 100%, the inhibition [35] was 12.1% and the inhibition [36] was 4.33%. The residual activity [37] was 90%, the residual activity [38] was 92% and the residual activity [39] was 100%. It also gave a residual activity [40] of 96%, a residual activity [41] of 82% and an inhibition [42] of 35.9%. For the same compound, the inhibition [43] was -6.95% and the residual activity [44] was 82%.

`Nc1cnc(N2CCc3cc(S(=O)(=O)Nc4c(F)cc(Cl)cc4F)cc(N4CCCC4=O)c32)nc1` was tested, and the residual activity [1] was 100%, the residual activity [2] was 100% and the residual activity [3] was 100%. The residual activity [4] was 97%, the inhibition [5] was -1.21% and the residual activity [6] was 100%. For the same compound, the residual activity [7] was 81%, the residual activity [8] was 100% and the residual activity [9] was 98%. It also gave a residual activity [10] of 93%, a residual activity [11] of 100% and a residual activity [12] of 100%. For the same compound, the residual activity [13] was 100%, the residual activity [14] was 100% and the residual activity [15] was 100%. It also gave a residual activity [16] of 100%, a residual activity [17] of 99% and an inhibition [18] of 18.2%. For the same compound, the residual activity [19] was 85%, the residual activity [20] was 98% and the residual activity [21] was 100%. For the same compound, the residual activity [22] was 93%, the residual activity [23] was 100% and the residual activity [24] was 100%. The residual activity [25] was 100%, the residual activity [26] was 100% and the residual activity [27] was 88%. For the same compound, the residual activity [28] was 100%, the residual activity [29] was 98% and the residual activity [30] was 100%. The residual activity [31] was 42%, the residual activity [32] was 81% and the residual activity [33] was 83%. The residual activity [34] was 100%, the inhibition [35] was 8.19% and the inhibition [36] was 4.68%. It also gave a residual activity [37] of 100%, a residual activity [38] of 100% and a residual activity [39] of 100%. It also gave a residual activity [40] of 92%, a residual activity [41] of 100% and an inhibition [42] of -1.96%. The inhibition [43] was -8.35% and the residual activity [44] was 100%.
